The values below come from patent publication US5696117A, “Benzoxazine antimicrobial agents” (Ortho Pharmaceutical Corporation, priority 1995, dated 1997).

For the assay, the target named is T1, Kinase A and SpoOF (Bacillus subtilis, UniProt P16497).
T1 construct: made in house; host or cells: recombinant E. coli (overexpression)
T1 sequence (P16497 1-606): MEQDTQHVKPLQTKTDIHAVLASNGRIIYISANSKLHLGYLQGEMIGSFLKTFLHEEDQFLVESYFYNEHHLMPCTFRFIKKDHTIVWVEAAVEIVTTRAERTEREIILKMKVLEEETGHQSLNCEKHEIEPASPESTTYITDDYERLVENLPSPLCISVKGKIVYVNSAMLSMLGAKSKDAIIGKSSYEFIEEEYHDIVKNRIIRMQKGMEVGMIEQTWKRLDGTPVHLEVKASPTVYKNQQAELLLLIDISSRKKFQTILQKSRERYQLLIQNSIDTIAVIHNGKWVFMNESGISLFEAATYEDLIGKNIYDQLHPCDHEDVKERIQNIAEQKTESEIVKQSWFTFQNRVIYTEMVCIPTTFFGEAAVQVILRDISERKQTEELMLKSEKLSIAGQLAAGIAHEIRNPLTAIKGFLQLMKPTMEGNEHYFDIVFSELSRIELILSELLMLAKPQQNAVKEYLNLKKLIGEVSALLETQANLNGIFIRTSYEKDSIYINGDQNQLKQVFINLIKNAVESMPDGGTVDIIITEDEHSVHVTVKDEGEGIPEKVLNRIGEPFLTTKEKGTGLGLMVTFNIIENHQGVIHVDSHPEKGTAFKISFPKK
In words: Autophosphorylation of Kinase A and Transphosphorylation of SpoOF Assay (HPK in vitro assay). In kind it is biochemical. The conditions noted are these: inhibition of KinA autophosphorylation / SpoOF transphosphorylation, inhibitor concentrations from 1 to 500 μM. As to the method:
1. Autophosphorylation of Kinase A and Transphosphorylation of SpoOF Assay
To study the effect of the compounds of the present invention on the signal transduction process in bacteria, the inhibiting effect of the compounds on the sporulation operon proteins Kinase A and SpoOF was examined. Specifically, the inhibition of autophosphorylation of Kinase A and the transphosphorylation of SpoOF was determined in the following assays. The SpoOF response regulator is the primary substrate for phosphorylation by the protein kinase, Kin A, involved in the sporulation process in bacteria. See D. Burbulys, K. A. Trach, J. A. Hoch, Cell, 64, 545-552 (1991). SpoOF and KinA were prepared from recombinant E. coli overexpressing the proteins (J. Cavanagh et al, Amino Acids, 6, 131-140 (1994) and references therein).
The following stock reagents were either prepared and used promptly or stored at the indicated temperature:
8× Salts: 2M KCl (5 mL), 1M MgCl2 (800 mL), 1M CaCl2 (100 mL), 10 mg/mL phenylmethylsulfonyl fluoride (200 mL), 1M dithioreitol (50 mL), 0.25M Na2 EDTA (32 mL) and H2 O 3.82 mL (-20° C.)
5× Loading Dye: 0.5M TRIS-HCl-pH 6.8 (7.5 mL), 10% SDS (2 mL) 0.1% bromophenol blue (0.5 mL), 100% glycerol (3 mL) and 12.5M 2-mercaptoethanol (0.3 mL)
1-1.3 mg/mL KinA:15 mM TRIS-HCl, pH 8.0, 6 mM KCl; 4 mM 2-mercaptoethanol; 40% glycerol (-20° C.)
1 mg/mL SpoOF: 17.5 mM TRIS-HCl, pH 8.0; 0.7 mM KCl; 0.7 mM MgCl2; 0.7 mM CaCl2; 5mM 2-mercaptoethanol; 30% Glycerol (-20° C.)
5% Stacking Gel: 40% 29:1 acrylamide:bis acrylamide (1.25 mL), 0.5M TRIS-HCl, pH 6.8 (2.5 mL), 10% SDS (0.1 mL), D-H2 O (6.15 mL) 10% ammonium persulfate (100 mL) and TEMED (25 mL)
SDS Running Buffer: TRIS-BASE (3.02 g), glycine (14.4 g) SDS (1 g), D-H2 O (to 1 L)
The reaction mixture was prepared from 8× Salts (87 μL), 1M TRIS, pH 8 (118 μL), 50% glycerol (63 μL), SpoOF (14.1 μL) and KinA (7.0 μL). Microcentrifuge tubes were charged with the reaction mixture (18.5 μL) and a 1.0 mM solution of the test compound in 5% DMSO (18.5 μL), and incubated for 15 min on ice. 100 mM ATP solution (3.0 μl, containing 625 μCi [^32 P]ATP) was added, and the mixture left for 10 minutes at room temperature. The reaction was quenched with 5× loading dye (10 μL per tube) and the samples were loaded on a prepared 5% Stacking Gel, or stored on dry ice until ready for use. The prepared wells were filled with SDS Running Buffer, samples were loaded into the wells, and 80 volts were applied to the gel until the dye front reached the bottom of the stacking gel. The voltage was then increased to 250 volts until electrophoresis was complete. Radioactive bands in the gel corresponding to phosphorylated KinA and SpoOF were imaged and quantitated with a phosphoimager.
If either enzyme was inhibited (as evidenced by the absence of labelled protein in the developed gel), an IC50 was calculated by running the assay with a range of inhibitor concentrations from 1 to 500 μM. After electrophoresis of the reaction mixtures, percent inhibition was determined by measuring the concentration of radioactive phosphorus with a phosphoimager and calculating the values using a software program (BioRad Molecular Analyst). IC50 values of less than 500 μM are considered active.

Counter-ions that a name gives are not always drawn.

In the case of “3,4-Dihydro-4-(2,4-dichlorobenzyl)-2-{2-[4-(2-guanidinoethyl)phenoxy]ethyl}-3-oxo-2H-1,4-benzoxazine [Compound 141]”, the IC50 was determined as 37 µM. To `CC(C)(C)OC(=O)NCc1ccc(OCCC2Oc3ccccc3N(Cc3cccc(Cl)c3)C2=O)cc1` (centres unmarked) [Compound 1, 2-[2-[4-(t-Butoxycarbonylaminomethyl)phenoxy]ethyl]-4-(3-chlorobenzyl)-3,4-dihydro-3-oxo-2H-1,4-benzoxazine] belongs 253 µM; to `CC(C)(C)OC(=O)NCc1ccc(OCCC2Oc3ccccc3N(Cc3ccc(Cl)cc3)C2=O)cc1` (centres unmarked) [Compound 3, 2-[2-[4-(t-Butoxycarbonylaminomethyl)phenoxy]ethyl]-4-(4-chlorobenzyl)-3,4-dihydro-3-oxo-2H-1,4-benzoxazine], 283 µM. The value for `CC(C)(C)OC(=O)NCCc1cccc(OCCC2Oc3ccccc3N(Cc3ccc(Cl)cc3)C2=O)c1` (centres unmarked) [Compound 7, 2-{2-[3-(2-t-Butoxycarbonylaminoethyl)phenoxy]ethyl}-4-(4-chlorobenzyl)-3,4-dihydro-3-oxo-2H-1,4-benzoxazine] was 308 µM; that for `NCc1cccc(OCCC2Oc3ccccc3N(Cc3ccc(Cl)cc3)C2=O)c1` (centres unmarked) [Compound 10, 2-[2-[3-(Aminomethyl)phenoxy]ethyl]-4-(4-chlorobenzyl)-3,4-dihydro-3-oxo-2H-1,4-benzoxazine] was 122 µM. `NCc1cccc(OCCC2Oc3ccccc3N(Cc3ccccc3Cl)C2=O)c1` (centres unmarked) [Compound 12, 2-[2-[3-(Aminomethyl)phenoxy]ethyl]-4-(2-chlorobenzyl)-3,4-dihydro-3-oxo-2H-1,4-benzoxazine]: the IC50 stood at 140 µM. To `CC(C)(C)OC(=O)NCc1ccc(OCCC2Oc3ccccc3N(Cc3ccccc3Cl)C2=O)cc1` (centres unmarked) [Compound 13, 2-[2-[4-(t-Butoxycarbonylaminomethyl)phenoxy]ethyl]-4-(2-chlorobenzyl)-3,4-dihydro-3-oxo-2H-1,4-benzoxazine] belongs 272 µM; to `NCc1ccc(OCCC2Oc3ccccc3N(Cc3ccccc3Cl)C2=O)cc1` (centres unmarked) [Compound 14, 2-[2-[4-(Aminomethyl)phenoxy]ethyl]-4-(2-chlorobenzyl)-3,4-dihydro-3-oxo-2H-1,4-benzoxazine], 172 µM. `CC(C)(C)OC(=O)NCCc1cccc(OCCC2Oc3ccccc3N(Cc3ccccc3Cl)C2=O)c1` (centres unmarked) [Compound 15, 2-[2-[3-(2-(t-Butoxycarbonylamino)ethyl)phenoxy]ethyl]-4-(2-chlorobenzyl)-3,4-dihydro-3-oxo-2H-1,4-benzoxazine]: the IC50 is 165 µM. To `CC(C)(C)OC(=O)NCCc1ccc(OCCC2Oc3ccccc3N(Cc3ccccc3Cl)C2=O)cc1` (centres unmarked) [Compound 17, 2-[2-[4-(2-(t-Butoxycarbonylamino)ethyl)phenoxy]ethyl]-4-(2-chlorobenzyl)-3,4-dihydro-3-oxo-2H-1,4-benzoxazine] belongs 352 µM. To `NCCc1ccc(OCCC2Oc3ccccc3N(Cc3ccccc3Cl)C2=O)cc1` (centres unmarked) [Compound 18, 2-[2-[4-(2-Aminoethyl)phenoxy]ethyl]-4-(2-chlorobenzyl)-3,4-dihydro-3-oxo-2H-1,4-benzoxazine] belongs 264 µM; to `N=C(N)NCCc1ccc(OCCC2Oc3ccccc3N(Cc3ccccc3Cl)C2=O)cc1` (centres unmarked) [Compound 20, 4-(2-Chlorobenzyl)-2-[2-[4-(2-guanidinoethyl)phenoxy]ethyl]-3,4-dihydro-3-oxo-2H-1,4-benzoxazine], 16 µM. `N=C(N)NCc1ccc(OCCC2Oc3ccccc3N(Cc3ccc(Cl)cc3)C2=O)cc1` (centres unmarked) [Compound 21, 4-(4-Chlorobenzyl)-2-[2-[4-(guanidinomethyl)phenoxy]ethyl]-3,4-dihydro-3-oxo-2H-1,4-benzoxazine]: the half-inhibitory concentration (IC50) is 26 µM. The value for `Cc1ccc2c(c1)N(Cc1cccc(Cl)c1)C(=O)C(CCOc1ccc(CCNC(=N)N)cc1)O2` (centres unmarked) [Compound 24, 4-(3-Chlorobenzyl)-3,4-dihydro-2-[2-[4-(2-guanidinoethyl)phenoxy]ethyl]-6-methyl-3-oxo-2H-1,4-benzoxazine] was 56 µM; that for `N=C(N)NCCc1ccc(OCCC2Oc3cccnc3N(Cc3cccc(Cl)c3)C2=O)cc1` (centres unmarked) [Compound 25, 4-(3-Chlorobenzyl)-3,4-dihydro-2-[2-[4-(2-guanidinoethyl)phenoxy]ethyl]-3-oxo-2H-pyrido[3,2-b]-1,4-oxazine] was 41 µM. Consider `CC(C)(C)OC(=O)N=C(NCCc1ccc(OCCC2Oc3ccccc3N(Cc3ccccc3)C2=O)cc1)NC(=O)OC(C)(C)C` (centres unmarked) [Compound 27], for which the IC50 amounted to 340 µM. The molecule `N=C(N)NCCc1ccc(OCCC2Oc3ccccc3N(Cc3ccccc3)C2=O)cc1` (centres unmarked) [Compound 28, 4-Benzyl-3,4-dihydro-2-{2-[4-[2-guanidinoethyl]phenoxy]ethyl}-3-oxo-2H-1,4-benzoxazine Hydrochloride 0.7 Hydrate] showed an IC50 of 44 µM. As for `COc1ccccc1CN1C(=O)C(CCOc2ccc(CCNC(=N)N)cc2)Oc2ccccc21` (centres unmarked) [Compound 29, 3,4-Dihydro-2-{2-[4-(2-guanidinoethyl)phenoxy]ethyl}-4-(2-methoxybenzyl)-3-oxo-2H-1,4-benzoxazine], the IC50 was determined as 54 µM.

As for `N=C(N)NCCc1ccc(OCCC2Oc3ccccc3N(Cc3cccc(F)c3)C2=O)cc1` (centres unmarked) [Compound 31, 3,4-Dihydro-4-(3-fluorobenzyl)-2-{2-[4-(2-guanidinoethyl)phenoxy]ethyl}-3-oxo-2 H-1,4-benzoxazine], the IC50 is 46 µM. For `COc1cccc(CN2C(=O)C(CCOc3ccc(CCNC(=N)N)cc3)Oc3ccccc32)c1` (centres unmarked) [Compound 33, 3,4-Dihydro-2-{2-[4-(2-guanidinoethyl)phenoxy]ethyl}-4-(3-methoxybenzyl)-3-oxo-2H-1,4-benzoxazine], the IC50 came out at 145 µM. The value for `N=C(N)NCCc1ccc(OCCC2Oc3ccccc3N(Cc3cccc(OCc4ccccc4)c3)C2=O)cc1` (centres unmarked) [Compound 35, 4-(3-Benzyloxybenzyl)-3,4-dihydro-2-{2-[4-(2-guanidinoethyl)phenoxy]ethyl}-3-oxo-2H-1,4-benzoxazine] was 24 µM. In turn, `N=C(N)NCCc1ccc(OCCC2Oc3ccccc3N(Cc3cccc(O)c3)C2=O)cc1` (centres unmarked) [Compound 36, 3,4-Dihydro-2-{2-[4-(2-guanidinoethyl)phenoxy]ethyl}-4-(3-hydroxybenzyl)-3-oxo-2H-1,4-benzoxazine] displayed a 50% inhibitory concentration (IC50) of 72 µM. In turn, `COc1ccc(CN2C(=O)C(CCOc3ccc(CCNC(=N)N)cc3)Oc3ccccc32)cc1` (centres unmarked) [Compound 37, 3,4-Dihydro-2-{2-[4-(2-guanidinoethyl)phenoxy]ethyl}-4-(4-methoxybenzyl)-3-oxo-2H-1,4-benzoxazine] showed an IC50 of 51 µM.

A word on the IC50: it is the point on the concentration scale where inhibition reaches its midpoint. Low values mean greater potency, high ones weaker potency.
